This passage reports pIC50 results from US8163929B2, “Dihydropyridone amides as P2X7 modulators” (Roche Palo Alto LLC, priority 2008, dated 2012).

SMILES strings stand for the structures.

In the experiment the target is T1, P2X7 (UniProt Q99572).
T1 sequence (Q99572 1-595): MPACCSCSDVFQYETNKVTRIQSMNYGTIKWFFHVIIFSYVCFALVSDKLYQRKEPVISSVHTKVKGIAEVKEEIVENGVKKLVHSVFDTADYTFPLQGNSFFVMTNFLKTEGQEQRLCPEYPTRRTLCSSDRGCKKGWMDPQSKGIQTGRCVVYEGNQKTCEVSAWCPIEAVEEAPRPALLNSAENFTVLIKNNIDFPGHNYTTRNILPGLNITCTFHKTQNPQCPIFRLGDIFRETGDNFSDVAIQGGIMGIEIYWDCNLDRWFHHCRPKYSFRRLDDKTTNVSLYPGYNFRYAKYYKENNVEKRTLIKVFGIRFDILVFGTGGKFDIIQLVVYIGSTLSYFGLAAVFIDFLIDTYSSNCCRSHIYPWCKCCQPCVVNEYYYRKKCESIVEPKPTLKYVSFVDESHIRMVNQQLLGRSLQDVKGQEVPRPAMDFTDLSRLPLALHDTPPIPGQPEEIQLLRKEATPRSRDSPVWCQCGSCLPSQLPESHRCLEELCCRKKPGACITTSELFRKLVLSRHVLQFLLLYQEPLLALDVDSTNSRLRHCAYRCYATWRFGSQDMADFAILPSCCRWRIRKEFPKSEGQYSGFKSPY
The experiment can be described thus: P2X7 activity of Table 1. Type of experiment: cell-based. Conditions: pIC50 values for P2X7. The procedure, abridged:
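FLIPR calcium flux with fluo-3 in 1321N1 cells expressing human P2X7 and HEK293 cells expressing rat P2X7, in HBSS with 2 mM CaCl2 and 2.5 mM probenecid. Antagonist pre-incubated 20 min at room temperature, then BzATP added (100 μM human, 5 μM rat). Peak response over 5 min normalised to 5 μM ionomycin.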
As usually defined, the pIC50 is the negative decadic logarithm of the IC50, by convention in mol/L. Higher therefore signals a low IC50. In the case of `Cc1ccc(-c2ccc(=O)n(CCO)n2)cc1NC(=O)C1=CNC(=O)C[C@H]1c1ccc(F)cc1` [Compound 121, (S)-4-(4-Fluoro-phenyl)-6-oxo-1,4,5,6-tetrahydro-pyridine-3-carboxylic acid {5-[1-(2-hydroxy-ethyl)-6-oxo-1,6-dihydro-pyridazin-3-yl]-2-methyl-phenyl}-amide], the pIC50 worked out at 7.385. Consider `Cc1ccc(=O)n(-c2ccc(C)c(NC(=O)C3=CNC(=O)C[C@H]3c3ccc(F)cc3)c2)c1` [Compound 122, (S)-4-(4-Fluoro-phenyl)-6-oxo-1,4,5,6-tetrahydro-pyridine-3-carboxylic acid [2-methyl-5-(5-methyl-2-oxo-2H-pyridin-1-yl)-phenyl]-amide], for which the pIC50 came out at 8.26.

As for `CN1C=C(C(=O)Nc2cc(-c3ccn[nH]c3=O)ccc2F)[C@H](c2ccc(F)cc2)CC1=O` [Compound 123, (S)-4-(4-Fluoro-phenyl)-1-methyl-6-oxo-1,4,5,6-tetrahydro-pyridine-3-carboxylic acid [2-fluoro-5-(3-oxo-2,3-dihydro-pyridazin-4-yl)-phenyl]-amide], the pIC50 is reported as 7.58.

`Cc1ccc(-n2ccc(=O)[nH]c2=O)cc1NC(=O)C1=CN(C)C(=O)C[C@H]1c1ccc(F)cc1` [Compound 124, (S)-4-(4-Fluoro-phenyl)-1-methyl-6-oxo-1,4,5,6-tetrahydro-pyridine-3-carboxylic acid [5-(2,4-dioxo-3,4-dihydro-2H-pyrimidin-1-yl)-2-methyl-phenyl]-amide] returned a pIC50 of 6.44. On to `Cc1cc(Cl)c(-n2ncccc2=O)cc1NC(=O)C1=CNC(=O)C[C@H]1c1ccc(F)cc1` [Compound 125, (S)-4-(4-Fluoro-phenyl)-6-oxo-1,4,5,6-tetrahydro-pyridine-3-carboxylic acid [4-chloro-2-methyl-5-(6-oxo-6H-pyridazin-1-yl)-phenyl]-amide], for which the pIC50 stood at 7.606. `COC[C@H](O)Cn1nc(-c2ccc(C)c(NC(=O)C3=CN(C)C(=O)C[C@H]3c3ccc(F)cc3)c2)ccc1=O` [Compound 126, (S)-4-(4-Fluoro-phenyl)-1-methyl-6-oxo-1,4,5,6-tetrahydro-pyridine-3-carboxylic acid {5-[1-((R)-2-hydroxy-3-methoxy-propyl)-6-oxo-1,6-dihydro-pyridazin-3-yl]-2-methyl-phenyl}-amide] showed a pIC50 of 7.615.

Turning to `Cc1cc(Cl)c(-c2ccnn(C)c2=O)cc1NC(=O)C1=CNC(=O)C[C@H]1c1ccc(F)cc1` [Compound 127, (S)-4-(4-Fluoro-phenyl)-6-oxo-1,4,5,6-tetrahydro-pyridine-3-carboxylic acid [4-chloro-2-methyl-5-(2-methyl-3-oxo-2,3-dihydro-pyridazin-4-yl)-phenyl]-amide], the pIC50 was 7.843. For `Cc1ccc(-c2ccnn(C)c2=O)cc1NC(=O)C1=CN(CC(=O)N(C)C)C(=O)C[C@H]1c1ccc(F)cc1` [Compound 128, (S)-1-Dimethylcarbamoylmethyl-4-(4-fluoro-phenyl)-6-oxo-1,4,5,6-tetrahydro-pyridine-3-carboxylic acid [2-methyl-5-(2-methyl-3-oxo-2,3-dihydro-pyridazin-4-yl)-phenyl]-amide], the pIC50 is 7.195. Molecule `Cc1ccc(-n2cc(C)c(=O)[nH]c2=O)cc1NC(=O)C1=CN(C)C(=O)C[C@H]1c1ccc(F)cc1` [Compound 129, (S)-4-(4-Fluoro-phenyl)-1-methyl-6-oxo-1,4,5,6-tetrahydro-pyridine-3-carboxylic acid [2-methyl-5-(5-methyl-2,4-dioxo-3,4-dihydro-2H-pyrimidin-1-yl)-phenyl]-amide] gave a pIC50 of 7.945. On to `Cc1cc(F)c(-c2ccnn(C)c2=O)cc1NC(=O)C1=CN(C)C(=O)C[C@H]1c1ccc(F)cc1` [Compound 130, (S)-4-(4-Fluoro-phenyl)-1-methyl-6-oxo-1,4,5,6-tetrahydro-pyridine-3-carboxylic acid [4-fluoro-2-methyl-5-(2-methyl-3-oxo-2,3-dihydro-pyridazin-4-yl)-phenyl]-amide], for which the pIC50 is given as 7.864. Under `CCn1c(=O)cnn(-c2ccc(C)c(NC(=O)C3=CN(C)C(=O)C[C@H]3c3ccc(F)cc3)c2)c1=O` [Compound 131, (S)-4-(4-Fluoro-phenyl)-1-methyl-6-oxo-1,4,5,6-tetrahydro-pyridine-3-carboxylic acid [5-(4-ethyl-3,5-dioxo-4,5-dihydro-3H-[1,2,4]triazin-2-yl)-2-methyl-phenyl]-amide] stands 7.42; under `Cc1ccc(-n2ccc(=O)n(C)c2=O)cc1NC(=O)C1=CN(C)C(=O)C[C@H]1c1ccc(F)cc1` [Compound 132, (S)-4-(4-Fluoro-phenyl)-1-methyl-6-oxo-1,4,5,6-tetrahydro-pyridine-3-carboxylic acid [2-methyl-5-(3-methyl-2,4-dioxo-3,4-dihydro-2H-pyrimidin-1-yl)-phenyl]-amide], 6.015. `Cc1ccc(-n2ccc(=O)n(C)c2=O)cc1NC(=O)C1=CNC(=O)C[C@H]1c1ccc(F)cc1` [Compound 133, (S)-4-(4-Fluoro-phenyl)-6-oxo-1,4,5,6-tetrahydro-pyridine-3-carboxylic acid [2-methyl-5-(3-methyl-2,4-dioxo-3,4-dihydro-2H-pyrimidin-1-yl)-phenyl]-amide] yielded a pIC50 of 7.24. `Cc1ccc(-c2ccc(=O)n(CCO)n2)cc1NC(=O)C1=CN(C)C(=O)C[C@H]1c1ccc(F)cc1` [Compound 134, (S)-4-(4-Fluoro-phenyl)-1-methyl-6-oxo-1,4,5,6-tetrahydro-pyridine-3-carboxylic acid {5-[1-(2-hydroxy-ethyl)-6-oxo-1,6-dihydro-pyridazin-3-yl]-2-methyl-phenyl}-amide] displayed a pIC50 of 6.42. With `Cc1cnn(-c2ccc(C)c(NC(=O)C3=CNC(=O)C[C@H]3c3ccc(F)cc3)c2)c(=O)c1` [Compound 135, (S)-4-(4-Fluoro-phenyl)-6-oxo-1,4,5,6-tetrahydro-pyridine-3-carboxylic acid [2-methyl-5-(4-methyl-6-oxo-6H-pyridazin-1-yl)-phenyl]-amide], the pIC50 came to 7.655. Consider `Cc1cnn(-c2ccc(C)c(NC(=O)C3=CN(C)C(=O)C[C@H]3c3ccc(F)cc3)c2)c(=O)c1` [Compound 136, (S)-4-(4-Fluoro-phenyl)-1-methyl-6-oxo-1,4,5,6-tetrahydro-pyridine-3-carboxylic acid [2-methyl-5-(4-methyl-6-oxo-6H-pyridazin-1-yl)-phenyl]-amide], for which the negative-log IC50 (pIC50) amounted to 7.515. In turn, `Cc1cc(-c2ccc(F)c(NC(=O)C3=CN(C)C(=O)C[C@H]3c3ccc(F)cc3)c2)n[nH]1` [Compound 137, (S)-4-(4-Fluoro-phenyl)-1-methyl-6-oxo-1,4,5,6-tetrahydro-pyridine-3-carboxylic acid [2-fluoro-5-(5-methyl-1H-pyrazin-3-yl)-phenyl]-amide] came in with a negative logarithm of the IC50 (pIC50) of 6.39. The result for `Cc1cc(F)c(-c2cccn(C)c2=O)cc1NC(=O)C1=CN(C)C(=O)C[C@H]1c1ccc(F)cc1` [Compound 139, (S)-4-(4-Fluoro-phenyl)-1-methyl-6-oxo-1,4,5,6-tetrahydro-pyridine-3-carboxylic acid [4-fluoro-2-methyl-5-(1-methyl-2-oxo-1,2-dihydro-pyridin-3-yl)-phenyl]-amide] reads 7.83; that for `Cc1ccc(=O)n(-c2ccc(C)c(NC(=O)C3=CN(C)C(=O)C[C@H]3c3ccc(F)cc3)c2)c1` [Compound 140, (S)-4-(4-Fluoro-phenyl)-1-methyl-6-oxo-1,4,5,6-tetrahydro-pyridine-3-carboxylic acid [2-methyl-5-(5-methyl-2-oxo-2H-pyridin-1-yl)-phenyl]-amide], 7.18. The result for `CN1C=C(C(=O)Nc2cc(-c3ccnn(C)c3=O)ccc2F)[C@H](c2ccc(F)cc2)CC1=O` [Compound 141, (S)-4-(4-Fluoro-phenyl)-1-methyl-6-oxo-1,4,5,6-tetrahydro-pyridine-3-carboxylic acid [2-fluoro-5-(2-methyl-3-oxo-2,3-dihydro-pyridazin-4-yl)-phenyl]-amide] reads 7.36.

`Cn1nccc(-c2ccc(F)c(NC(=O)C3=CNC(=O)C[C@H]3c3ccc(F)cc3)c2)c1=O` [Compound 142, (S)-4-(4-Fluoro-phenyl)-6-oxo-1,4,5,6-tetrahydro-pyridine-3-carboxylic acid [2-fluoro-5-(2-methyl-3-oxo-2,3-dihydro-pyridazin-4-yl)-phenyl]-amide] gave a pIC50 of 8.2. On to `Cc1cnn(-c2cc(NC(=O)C3=CNC(=O)C[C@H]3c3ccc(F)cc3)c(C)cc2F)c(=O)c1` [Compound 143, (S)-4-(4-Fluoro-phenyl)-6-oxo-1,4,5,6-tetrahydro-pyridine-3-carboxylic acid [4-fluoro-2-methyl-5-(4-methyl-6-oxo-6H-pyridazin-1-yl)-phenyl]-amide], for which the pIC50 turned out to be 7.455. The molecule `Cc1cnn(-c2cc(NC(=O)C3=CN(C)C(=O)C[C@H]3c3ccc(F)cc3)c(C)cc2F)c(=O)c1` [Compound 145, (S)-4-(4-Fluoro-phenyl)-1-methyl-6-oxo-1,4,5,6-tetrahydro-pyridine-3-carboxylic acid [4-fluoro-2-methyl-5-(4-methyl-6-oxo-6H-pyridazin-1-yl)-phenyl]-amide] gave a pIC50 of 7.265.
